In ChEMBL document CHEMBL4364320, “An insight into the medicinal perspective of synthetic analogs of indole: A review” (Eur J Med Chem, 2019):
In brackets after ≈: the same amount, converted by molar mass.

Assays:
[1] = tested on: Human immunodeficiency virus 1; experiment: Antiviral activity against wild type HIV1 infected in human MT4 cells; assay type: functional, organism-based; conditions: Human immunodeficiency virus 1, MT4
[2] = target: Sodium-dependent serotonin transporter (Homo sapiens, UniProt P31645); experiment: Inhibition of 5HT transporter (unknown origin)
Chain of Sodium-dependent serotonin transporter (P31645 whole entry): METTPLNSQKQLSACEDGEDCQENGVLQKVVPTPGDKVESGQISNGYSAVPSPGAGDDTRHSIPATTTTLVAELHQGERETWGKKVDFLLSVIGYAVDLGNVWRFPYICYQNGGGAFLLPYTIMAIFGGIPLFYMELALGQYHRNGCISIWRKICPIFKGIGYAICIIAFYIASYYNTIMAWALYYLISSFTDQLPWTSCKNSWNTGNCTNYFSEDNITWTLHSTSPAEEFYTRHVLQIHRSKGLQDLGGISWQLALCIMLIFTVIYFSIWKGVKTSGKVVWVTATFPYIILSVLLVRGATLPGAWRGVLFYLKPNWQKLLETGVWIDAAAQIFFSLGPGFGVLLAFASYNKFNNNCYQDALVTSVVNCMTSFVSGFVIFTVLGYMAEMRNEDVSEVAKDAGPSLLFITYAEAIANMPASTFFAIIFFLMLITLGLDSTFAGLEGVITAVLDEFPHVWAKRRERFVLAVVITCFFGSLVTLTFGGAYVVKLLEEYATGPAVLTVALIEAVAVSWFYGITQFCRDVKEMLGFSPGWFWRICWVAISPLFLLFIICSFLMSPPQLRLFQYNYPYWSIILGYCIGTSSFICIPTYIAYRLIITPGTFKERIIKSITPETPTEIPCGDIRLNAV

Plasmodium falciparum = experiment: Antiplasmodial activity against chloroquine-resistant Plasmodium falciparum Dd2; assay type: functional, organism-based
RAW264.7 [3] = experiment: Inhibition of LPS-induced nitric oxide production in mouse RAW264.7 cells preincubated for 15 mins followed by LPS stimulation measured after 20 hrs by griess assay; assay type: functional, cell-based
[4] = Inhibition of TNFalpha-induced NFkappaB activation in HEK293 cells preincubated for 6 hrs followed by TNFalpha addition by luciferase reporter gene assay; assay type: cell-based; conditions: Homo sapiens
[5] = tested on: Human immunodeficiency virus 1; experiment: Antiviral activity against wild type HIV1 3B infected in human MT2 cells after 3 days by BrightGlo luciferase reporter gene assay; assay type: functional, organism-based; conditions: Human immunodeficiency virus 1, 3B, MT2, 72 h
[6] = tested on: Human immunodeficiency virus 1; experiment: Antiviral activity against HIV1 infected in human MT4 cells; assay type: functional, organism-based; conditions: Human immunodeficiency virus 1, MT4
[7] = tested on: Mycobacterium tuberculosis; experiment: Antimycobacterial activity against Mycobacterium tuberculosis; assay type: functional
[8] = tested on: Mycobacterium tuberculosis; experiment: Antimycobacterial activity against drug-sensitive Mycobacterium tuberculosis; assay type: functional
Dihydrofolate reductase [9] = target: T1, Dihydrofolate reductase (Mycobacterium tuberculosis, UniProt P9WNX1); experiment: Inhibition of Mycobacterium tuberculosis H37Rv DHFR
T1 sequence (P9WNX1 whole entry): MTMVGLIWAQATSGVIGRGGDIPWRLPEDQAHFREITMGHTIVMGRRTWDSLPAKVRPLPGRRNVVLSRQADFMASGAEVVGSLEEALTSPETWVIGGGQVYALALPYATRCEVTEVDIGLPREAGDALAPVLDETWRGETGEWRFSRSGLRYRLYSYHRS

Dihydrofolate reductase [10] = target: T2, Dihydrofolate reductase (Homo sapiens, UniProt P00374); experiment: Inhibition of human DHFR
T2 sequence (P00374 whole entry): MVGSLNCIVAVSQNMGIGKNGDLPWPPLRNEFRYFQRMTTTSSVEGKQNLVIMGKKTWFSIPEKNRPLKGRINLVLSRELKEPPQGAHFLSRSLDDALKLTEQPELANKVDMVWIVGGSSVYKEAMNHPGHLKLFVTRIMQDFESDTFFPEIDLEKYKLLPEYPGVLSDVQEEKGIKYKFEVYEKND

[11] = target: T3, Prostaglandin G/H synthase 2 (Homo sapiens, UniProt P35354); experiment: Inhibition of recombinant human COX2 assessed as decrease in PGE2 release after 10 mins by EIA
T3 sequence (P35354 whole entry): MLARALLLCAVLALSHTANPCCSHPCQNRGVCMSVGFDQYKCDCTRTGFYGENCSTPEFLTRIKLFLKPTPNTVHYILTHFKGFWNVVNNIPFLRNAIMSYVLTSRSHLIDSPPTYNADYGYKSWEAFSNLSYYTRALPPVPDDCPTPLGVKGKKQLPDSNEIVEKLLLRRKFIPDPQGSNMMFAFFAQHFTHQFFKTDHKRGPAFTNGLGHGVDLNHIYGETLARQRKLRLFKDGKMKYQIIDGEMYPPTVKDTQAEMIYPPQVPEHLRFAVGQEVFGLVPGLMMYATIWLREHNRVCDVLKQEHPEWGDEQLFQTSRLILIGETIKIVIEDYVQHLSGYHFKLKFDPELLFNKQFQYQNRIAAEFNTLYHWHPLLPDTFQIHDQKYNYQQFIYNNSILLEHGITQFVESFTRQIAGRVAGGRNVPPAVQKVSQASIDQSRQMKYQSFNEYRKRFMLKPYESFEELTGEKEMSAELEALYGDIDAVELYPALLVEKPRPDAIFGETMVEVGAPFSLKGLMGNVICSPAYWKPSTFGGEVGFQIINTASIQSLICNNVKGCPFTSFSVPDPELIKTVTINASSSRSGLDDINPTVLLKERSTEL

RAW264.7 [12] = experiment: Inhibition of nitric oxide production in mouse RAW264.7 cells by griess assay; assay type: functional, cell-based
Mus musculus = experiment: Antidiabetic activity in db/db mouse assessed as reduction in serum glucose level at 10 to 30 mg/kg, po after 1 week relative to control; assay type: functional; design: scale not given: the % may be the effect or the level left
[13] = tested on: Human immunodeficiency virus 1; experiment: Antiviral activity against HIV1 infected in human C8166 cells; assay type: functional, organism-based; conditions: Human immunodeficiency virus 1, C8166

COP(=O)(c1cc(C)cc(/C=C/C#N)c1)c1c(C(N)=O)[nH]c2ccc(Cl)cc12 (stereo not drawn)
IC50 [1]: 0.08 nM

Fc1cc2c(c(OCCNCCc3c[nH]c4ccc(F)cc34)c1)OCCC2
Ki [2]: 5 nM

CC1=C[C@@H]2c3c(CCN(C)C)c4ccccc4n3[C@@H](c3[nH]c4ccccc4c3CCN(C)C)[C@@H]2C(C)(C)C1
IC50 (Plasmodium falciparum): 80 nM

O/N=C/c1c(-c2ccccc2)[nH]c2ccccc12
IC50 (RAW264.7 [3]): 4400 nM | IC50 [4]: 6900 nM

CCOC(=O)Nc1[nH]c2ccc(Br)cc2c1C(C)(O)C(F)(F)F (stereo not drawn)
IC50 [5]: 3 nM

Cc1cc(C)nc(NS(=O)(=O)c2ccc(/N=C3\C(=O)Nc4ccccc43)cc2)n1
EC50 [6]: 8 µg/mL

N#Cc1ccc(C2SCC(=O)N2NC(=O)c2[nH]c3ccc(F)cc3c2-c2ccccc2)cc1 (stereo not drawn)
MIC99 [7]: 6.25 µg/mL (≈ 13.7 µM)

CNCCc1c(/C=C/[C@@]2(C)C[C@H](C=C(C)C)c3c(CCNC)c4ccccc4n32)[nH]c2ccccc12
IC50 (Plasmodium falciparum): 80 to 1420 nM

CNCCc1c([C@H]2[C@H]3[C@H](C=C(C)CC3(C)C)c3c(CCNC)c4ccccc4n32)[nH]c2ccccc12
IC50 (Plasmodium falciparum): 80 to 1420 nM

C[C@@H]1[C@H]2C[C@@H](C[C@H]1NC(=O)c1cc3c(F)cc(F)cc3[nH]1)C2(C)C
MIC [8]: 0.012 µM (≈ 3.99 ng/mL)

CC(C)=C[C@H]1C[C@](C)(/C=C/c2[nH]c3ccccc3c2CCN(C)C)n2c1c(CCN(C)C)c1ccccc12
IC50 (Plasmodium falciparum): 80 to 1420 nM

CCCCC(O)(c1c(NC(=O)OCC)[nH]c2ccc(Br)cc12)C(F)(F)F (stereo not drawn)
IC50 [5]: 3 nM

CC(=O)c1c(C)n(Cc2ccccc2)c2ccc(OCCCC(=O)O)cc12
IC50 (Dihydrofolate reductase [9]): 150000 nM | IC50 (Dihydrofolate reductase [10]): 980000 nM

COc1ccc2cc(-c3cc4ccccc4[nH]3)ccc2c1
IC50 [4]: 600 nM

CC(=O)N1C(=O)/C(=N\c2ccc(S(=O)(=O)Nc3nc(C)cc(C)n3)cc2)c2ccccc21
EC50 [6]: 8000 nM

CC(C)=C[C@H]1C[C@@](C)(/C=C/c2[nH]c3ccccc3c2CCN(C)C)n2c1c(CCN(C)C)c1ccccc12
IC50 (Plasmodium falciparum): 80 to 1420 nM

C#CCc1cn(C)c2c(O)cccc12
IC50 [11]: 6220 nM | IC50 (RAW264.7 [12]): 39800 nM

O=C(NN1C(=O)CSC1c1ccc([N+](=O)[O-])cc1)c1[nH]c2ccc(F)cc2c1-c1ccccc1 (stereo not drawn)
MIC99 [7]: 6.25 µg/mL (≈ 13.1 µM)

N#Cc1c(-c2ccccc2)[nH]c2ccccc12
IC50 (RAW264.7 [3]): 4800 nM | IC50 [4]: 8500 nM

Cc1c(CC(=O)O)c2cc(O)ccc2n1C(=O)c1ccc(Cl)cc1
Activity (Mus musculus): 44.3%

C[C@@H]1CC[C@H]2[C@@H](C)C(=O)O[C@@H]3O[C@@]4(C)CC[C@@H]1[C@]32OO4 [ARTEMISININ]
IC50 (Plasmodium falciparum): 80 to 1420 nM

CO[C@H]1/C=C/O[C@@]2(C)Oc3c(C)c(O)c4c(O)c(c(/C=N/N5CCN(C)CC5)c(O)c4c3C2=O)NC(=O)/C(C)=C\C=C\[C@H](C)[C@H](O)[C@@H](C)[C@@H](O)[C@@H](C)[C@H](OC(C)=O)[C@@H]1C [RIFAMPIN]
MIC99 [7]: 0.25 µg/mL (≈ 0.304 µM)

CN(CCOc1ccc(CC2SC(=O)NC2=O)cc1)c1ccccn1 (stereo not drawn) [ROSIGLITAZONE]
Activity (Mus musculus): 66%

Cc1cn([C@H]2C[C@H](N=[N+]=[N-])[C@@H](CO)O2)c(=O)[nH]c1=O [ZIDOVUDINE]
EC50 [13]: 1100 nM
